Data as given in ChEMBL document CHEMBL6103599, “Design of Potent Menin-KMT2A Interaction Inhibitors with Improved In Vitro ADME Properties and Reduced hERG Affinity” (ACS Med Chem Lett, 2025).

How the values were obtained:
[1] = Inhibition of His6-tagged MEN1 458-551 deletion A5T mutant (2 to 583 residues)/MLL (unknown origin) transfected in Escherichia coli BL21 (DE3) protein-protein interaction by TR-FRET assay; parameters: species or system Homo sapiens
MV4-11 = assay: Antiproliferative activity against human MV4-11 cells assessed as cell growth inhibition measured after 7 days by CellTiter-Glo assay; format: functional, cell-based; details: MV4-11, 168 h
[2] = Metabolic stability in human hepatocytes assessed as clearance by LC-MS analysis; format: ADME, cell-based, Hepatocyte; details: read-out: CLH
[3] = Apparent permeability across apical to basolateral side in MDR1 knockout dog MDCKII cells incubated for 2 hrs by LC-MS/MS analysis; format: ADME, cell-based, Canis lupus familiaris, MDCK-II; details: MDCK
HL-60 = assay: Cytotoxicity against human HL-60 cells; format: functional, cell-based
[4] = biological target: Voltage-gated inwardly rectifying potassium channel KCNH2 (Homo sapiens, UniProt Q12809); assay: Inhibition of hERG expressed in CHO cells; format: toxicity, cell-based
Sequence of Voltage-gated inwardly rectifying potassium channel KCNH2 (Q12809 whole entry): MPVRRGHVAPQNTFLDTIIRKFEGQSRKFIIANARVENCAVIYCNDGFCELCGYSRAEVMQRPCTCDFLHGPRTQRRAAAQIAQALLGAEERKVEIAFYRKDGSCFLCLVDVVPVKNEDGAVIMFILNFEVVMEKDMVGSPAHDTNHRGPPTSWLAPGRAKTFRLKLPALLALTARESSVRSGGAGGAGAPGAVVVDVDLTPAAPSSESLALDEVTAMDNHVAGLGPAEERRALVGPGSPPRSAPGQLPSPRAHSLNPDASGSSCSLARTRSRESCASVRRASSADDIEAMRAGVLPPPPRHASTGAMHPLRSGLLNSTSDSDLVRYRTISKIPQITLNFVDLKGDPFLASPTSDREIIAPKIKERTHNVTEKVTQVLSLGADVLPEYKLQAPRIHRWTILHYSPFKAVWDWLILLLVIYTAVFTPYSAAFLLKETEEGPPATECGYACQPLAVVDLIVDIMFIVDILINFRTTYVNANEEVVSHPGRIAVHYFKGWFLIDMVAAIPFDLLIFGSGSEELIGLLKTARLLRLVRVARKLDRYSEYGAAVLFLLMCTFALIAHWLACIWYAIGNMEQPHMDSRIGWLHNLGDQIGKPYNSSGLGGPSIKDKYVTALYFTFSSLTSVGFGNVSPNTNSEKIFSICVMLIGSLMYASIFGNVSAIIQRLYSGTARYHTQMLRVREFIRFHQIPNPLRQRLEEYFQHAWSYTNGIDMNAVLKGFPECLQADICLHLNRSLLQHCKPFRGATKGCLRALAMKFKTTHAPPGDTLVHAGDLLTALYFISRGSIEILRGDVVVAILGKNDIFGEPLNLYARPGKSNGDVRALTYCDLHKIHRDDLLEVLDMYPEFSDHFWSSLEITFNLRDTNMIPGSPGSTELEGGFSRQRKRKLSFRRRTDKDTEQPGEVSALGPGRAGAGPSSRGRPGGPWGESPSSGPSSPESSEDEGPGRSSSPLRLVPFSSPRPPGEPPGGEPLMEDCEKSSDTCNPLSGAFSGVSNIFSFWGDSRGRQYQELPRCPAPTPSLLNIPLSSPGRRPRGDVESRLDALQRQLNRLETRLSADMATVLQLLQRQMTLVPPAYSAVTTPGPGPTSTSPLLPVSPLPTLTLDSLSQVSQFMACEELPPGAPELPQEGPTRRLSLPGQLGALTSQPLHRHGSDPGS

[5] = AUCinfinity in male CD-1 mouse at 1 mg/kg, iv measured after 8 hrs by LC-MS/MS analysis; format: ADME, organism-based; details: in vivo
[6] = Clearance in male CD-1 mouse at 1 mg/kg, iv measured after 8 hrs by LC-MS/MS analysis; format: ADME, organism-based; details: in vivo
[7] = Half life in male CD-1 mouse at 1 mg/kg, iv measured after 8 hrs by LC-MS/MS analysis; format: ADME, organism-based; details: in vivo
[8] = Volume of distribution at steady state in male CD-1 mouse at 1 mg/kg, iv measured after 8 hrs by LC-MS/MS analysis; format: ADME, organism-based; details: in vivo, read-out: Vdss
[9] = Cmax in male CD-1 mouse at 30 mg/kg, po measured after 8 hrs by LC-MS/MS analysis; format: ADME, organism-based; details: in vivo
[10] = Oral bioavailability in male CD-1 mouse at 30 mg/kg measured after 8 hrs by LC-MS/MS analysis; format: ADME, organism-based; details: in vivo
[11] = Hepatic extraction ratio in male CD-1 mouse at 1 mg/kg, iv measured after 8 hrs by LC-MS/MS analysis; format: ADME, organism-based; details: in vivo, read-out: ERH
[12] = Drug excretion in male Sprague-Dawley rat urine at 3 mg/kg, iv measured after 8 hrs by LC-MS/MS analysis; format: ADME, organism-based; details: read-out: Drug excretion
Cytochrome P450 3A4 = Cytochrome P450 3A4 (Homo sapiens, UniProt P08684); assay: Inhibition of CYP3A4 (unknown origin) using midazolam as substrate; format: ADME
Sequence of Cytochrome P450 3A4 (P08684 whole entry): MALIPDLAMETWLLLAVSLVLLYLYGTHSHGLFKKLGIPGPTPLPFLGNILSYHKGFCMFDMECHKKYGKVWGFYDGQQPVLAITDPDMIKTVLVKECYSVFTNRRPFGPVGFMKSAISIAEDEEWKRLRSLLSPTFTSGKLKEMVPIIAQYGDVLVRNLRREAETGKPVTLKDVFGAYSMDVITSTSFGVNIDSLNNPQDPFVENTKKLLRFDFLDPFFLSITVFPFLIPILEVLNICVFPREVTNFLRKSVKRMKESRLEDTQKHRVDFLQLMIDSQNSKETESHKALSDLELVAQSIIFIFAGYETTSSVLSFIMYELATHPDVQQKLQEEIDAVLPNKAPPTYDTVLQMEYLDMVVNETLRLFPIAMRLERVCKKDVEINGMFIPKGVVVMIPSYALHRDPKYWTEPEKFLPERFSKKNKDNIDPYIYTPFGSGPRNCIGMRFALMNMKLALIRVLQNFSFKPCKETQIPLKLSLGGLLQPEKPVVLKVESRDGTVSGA

[13] = Metabolic stability in human liver microsomes assessed as clearance incubated for 20 mins by LC-MS/MS analysis; format: ADME, Microsome; details: read-out: CLH
[14] = Binding affinity to His6-tagged MEN1 458-551 deletion A5T mutant (unknown origin) assessed as dissociation constant by SPR analysis; parameters: species or system Homo sapiens

SMILES | IC50 [1] [nM] | IC50 (MV4-11) [nM] | CLint scaled [2] [mL/min/kg] | Papp A→B at 2 h [3] [×10⁻⁶ cm/s] | IC50 (HL-60) [nM] | IC50 [4] [nM] | other results
CSC1(CN2CCC3(CC2)CN(c2ncnnc2Oc2ccc(F)cc2CN2CCCC2=O)C3)CC1 | 5 | 345 | 11 | 6 | – | – | –
CCN(C(=O)c1cc(F)ccc1Oc1cncnc1N1CC2(CCN(C[C@@H](O)C(F)(F)F)CC2)C1)C(C)C | 33 | 502 | – | – | > 5000 | – | –
CC1(CN2CCC3(CC2)CN(c2ncnnc2Oc2ccc(F)cc2C(=O)N2CCOCC2)C3)CC1 | 62 | 314 | 6 | 4 | – | 46000 | –
CC1(CN2CCC3(CC2)CN(c2ncnnc2Oc2ccc(F)cc2C(=O)N2C4CCC2COC4)C3)CC1 | 8 | 74 | 5 | 3 | – | 65000 | AUC(0-inf) [5]: 342 ng·h/mL; clearance [6]: 48.7 mL/min/kg; half-life [7]: 1.68 h; Vd [8]: 4.34 L/kg; Cmax [9]: 5000 ng/mL; bioavailability [10]: 74%; hepatic extraction ratio at 8 h [11]: 0.541; dose excreted at 8 h [12]: 22%; IC50 (Cytochrome P450 3A4): > 50000 nM
CCN(C(=O)c1cc(F)ccc1Oc1cncnc1N1CC2(CCN(CC3CCCCC3)CC2)C1)C(C)C | 8 | 23 | – | – | > 5000 | 3500 | –
C[C@@H]1COC[C@@H](C)N1C(=O)c1cc(F)ccc1Oc1nncnc1N1CC2(CCN(CC3(C)CC3)CC2)C1 | 23 | 48 | 7 | 8 | – | – | –
CC1(CN2CCC3(CC2)CN(c2ncnnc2Oc2ccc(F)cc2CN2C(=O)CC4CC42)C3)CC1 (racemic) | 6 | 112 | 4 | 9 | – | – | CLint scaled [13]: 4 mL/min/kg; AUC(0-inf) [5]: 160 ng·h/mL; clearance [6]: 104 mL/min/kg; half-life [7]: 0.64 h; Vd [8]: 4.14 L/kg
CCN(C(=O)c1cc(F)ccc1Oc1cncnc1N1CC2(CCN(CC3CCCC3)CC2)C1)C(C)C | 4 | 102 | – | – | > 5000 | – | –
CC1(CN2CCC3(CC2)CN(c2ncnnc2Oc2ccc(F)cc2CN2CCOCC2=O)C3)CC1 | 5 | 190 | 6 | 8 | – | – | –
C[C@@H]1COCC(=O)N1Cc1cc(F)ccc1Oc1nncnc1N1CC2(CCN(CC3(C)CC3)CC2)C1 | 4 | 19 | 4 | 7 | – | – | Kd [14]: 0.05 nM
CCN(C(=O)c1cc(F)ccc1Oc1cncnc1N1CC2(CCN(CC34CC(C3)C4)CC2)C1)C(C)C | 13 | 20 | – | – | > 5000 | – | –
CCN(C(=O)c1cc(F)ccc1Oc1nnccc1N1CC2(CCN(CC3(C)CC3)CC2)C1)C(C)C | 11 | 58 | 8 | 7 | – | 28000 | –
CSC1(CN2CCC3(CC2)CN(c2ncnnc2Oc2ccc(F)cc2CN2C(=O)COC[C@H]2C)C3)CC1 | 4 | 13 | 8 | 8 | – | – | –
C[C@@H]1CCCN1C(=O)c1cc(F)ccc1Oc1nncnc1N1CC2(CCN(CC3(C)CC3)CC2)C1 | 6 | 231 | 27 | 23 | – | – | –
CCN(C(=O)c1cc(F)ccc1Oc1cncnc1N1CC2(CCN(C[C@H]3CC[C@H](NS(=O)(=O)CC)CC3)CC2)C1)C(C)C [REVUMENIB] | 0.149 | 10 | – | – | > 5000 | 5000 | –
CCN(C(=O)c1cc(F)ccc1Oc1cncnc1N1CC2(CCN(Cc3ccc(C#N)cc3)CC2)C1)C(C)C | 12 | 53 | – | – | > 5000 | < 1000 | –
CCN(C(=O)c1cc(F)ccc1Oc1cncnc1N1CC2(CCN(CC3(C)CC3)CC2)C1)C(C)C | 7 | 22 | 11 | 26 | > 5000 | 10800 | –
C[C@@H]1CCC(=O)N1Cc1cc(F)ccc1Oc1nncnc1N1CC2(CCN(CC3(C)CC3)CC2)C1 | 4 | 40 | 3 | 9 | – | – | AUC(0-inf) [5]: 323 ng·h/mL; clearance [6]: 51.6 mL/min/kg; half-life [7]: 1.77 h; Vd [8]: 5.48 L/kg; hepatic extraction ratio at 8 h [11]: 0.574
CCN(C(=O)c1cc(F)ccc1Oc1nncnc1N1CC2(CCN(CC3(SC)CC3)CC2)C1)C(C)C | 8 | 12 | 14 | 42 | – | 75000 | –
CCN(C(=O)c1cc(F)ccc1Oc1cncnc1N1CC2(CCN(C(C)=O)CC2)C1)C(C)C | 160 | > 5000 | – | – | > 5000 | – | –
CCN(C(=O)c1cc(F)ccc1Oc1cncnc1N1CC2(CCN(C3CCCC3)CC2)C1)C(C)C | 18 | 166 | – | – | > 5000 | – | –
CC(C)C1(CN2CCC3(CC2)CN(c2ncnnc2Oc2ccc(F)cc2CN2C(=O)COC[C@H]2C)C3)CC1 | 4 | 19 | 10 | 35 | – | – | AUC(0-inf) [5]: 128 ng·h/mL; clearance [6]: 130 mL/min/kg; half-life [7]: 0.76 h; Vd [8]: 5.44 L/kg
CCN(C(=O)c1cc(F)ccc1Oc1cncnc1N1CC2(CCN(C(=O)C34CC5CC(CC3C5)C4)CC2)C1)C(C)C | 8 | 58 | – | – | > 5000 | > 100000 | –
CCC1(CN2CCC3(CC2)CN(c2ncnnc2Oc2ccc(F)cc2CN2C(=O)COC[C@H]2C)C3)CC1 | 5 | 21 | 6 | 29 | – | – | –
C[C@@H]1COC[C@H](C)N1C(=O)c1cc(F)ccc1Oc1nncnc1N1CC2(CCN(CC3(C)CC3)CC2)C1 | 9 | 65 | 5 | 13 | – | – | –
CCN(C(=O)c1cc(F)ccc1Oc1nncnc1N1CC2(CCN(CC3(C)CC3)CC2)C1)C(C)C | 10 | 19 | 6 | 35 | – | 28000 | AUC(0-inf) [5]: 92 ng·h/mL; clearance [6]: 129 mL/min/kg; half-life [7]: 2.22 h; Vd [8]: 14.1 L/kg
CON(C(=O)c1cc(F)ccc1Oc1nncnc1N1CC2(CCN(CC3(C)CC3)CC2)C1)C(C)C | 4 | 10 | 7 | 30 | – | – | AUC(0-inf) [5]: 212 ng·h/mL; clearance [6]: 78.7 mL/min/kg; half-life [7]: 0.48 h; Vd [8]: 1.7 L/kg; hepatic extraction ratio at 8 h [11]: 0.874
C[C@@H]1CCCCN1C(=O)c1cc(F)ccc1Oc1nncnc1N1CC2(CCN(CC3(C)CC3)CC2)C1 | 20 | 145 | 9 | 21 | – | – | –
CCN(C(=O)c1cc(F)ccc1Oc1cncnc1N1CC2(CCN(CC(C)(C)C)CC2)C1)C(C)C | 12 | 72 | – | – | > 5000 | 2900 | –
CCN(C(=O)c1cc(F)ccc1Oc1cncnc1N1CC2(CCN(CC(C)C)CC2)C1)C(C)C | 66 | 416 | – | – | > 5000 | – | –
